According to ChEMBL document CHEMBL1201862, “PubChem BioAssay data set” (2004):
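Growth conditions: 96-well plates. Treatment: test compound, 48 hours, 5 concentrations. Analysis: linear interpolation between bracketing concentrations; unreached endpoints set to highest concentration. GI50 is the concentration that inhibits growth by half.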 Activity calls are given as the source filed them. No stated cut-off is given here; in the data, active = GI50 up to about 1.1 µM and inactive = higher.

Key:
Test in all cases: NCI-60 cell line screen, 48 h
SK-MEL-2 = test system: SK-MEL-2
MCF7 = test system: MCF7
HL-60 = test system: HL-60
A549 = test system: A549
COLO 205 = test system: COLO 205
NCI-H226 = test system: NCI-H226
HCT-116 = test system: HCT-116
K562 = test system: K562
UACC-257 = test system: UACC-257
HCT-15 = test system: HCT-15
SF-268 = test system: SF-268
BT-549 = test system: BT-549
NCI/ADR-RES = test system: NCI/ADR-RES
MDA-MB-231 = test system: MDA-MB-231
NCI-H23 = test system: NCI-H23
MDA-N = test system: MDA-N
MDA-MB-435 = test system: MDA-MB-435
TK-10 = test system: TK-10
CAKI-1 = test system: CAKI-1
NCI-H522 = test system: NCI-H522

Row | Structure (SMILES) | GI50 (SK-MEL-2) | GI50 (MCF7) | GI50 (HL-60) | GI50 (A549) | GI50 (COLO 205) | GI50 (NCI-H226) | GI50 (HCT-116) | GI50 (K562) | GI50 (UACC-257) | GI50 (HCT-15) [µM] | GI50 (SF-268) | GI50 (BT-549) | GI50 (NCI/ADR-RES) | GI50 (MDA-MB-231) | GI50 (NCI-H23) | GI50 (MDA-N) | GI50 (MDA-MB-435) | GI50 (TK-10) | GI50 (CAKI-1) | GI50 (NCI-H522)
1 | Cc1nnc2sc(-c3ccc([N+](=O)[O-])o3)nn12 | 10.4 µM (inactive) | 7.18 µM (inactive) | 2.47 µM (inactive) | 37.8 µM (inactive) | 13.2 µM (inactive) | 15 µM (inactive) | 6.46 µM (inactive) | 5.33 µM (inactive) | 12.7 µM (inactive) | 5.06 | 13.2 µM (inactive) | 10.7 µM (inactive) | 16.4 µM (inactive) | 14 µM (inactive) | 15.5 µM (inactive) | 5.96 µM (inactive) | 4.37 µM (inactive) | 15.3 µM (inactive) | 10 µM (inactive) | 3.03 µM (inactive)
2 | CCNC(=S)N/N=C/c1cc([N+](=O)[O-])ccc1O | > 100 µM (inactive) | 0.307 µM (active) | 11.9 µM (inactive) | 33.4 µM (inactive) | 28.3 µM (inactive) | 27.9 µM (inactive) | 16.9 µM (inactive) | 20.6 µM (inactive) | 24.6 µM (inactive) | 11.6 | 24.3 µM (inactive) | 36.9 µM (inactive) | 21.8 µM (inactive) | 33 µM (inactive) | 41.6 µM (inactive) | 46.5 µM (inactive) | 37.2 µM (inactive) | 16.2 µM (inactive) |  | 21.5 µM (inactive)
3 | O=C(NNc1ccnc2cc(Cl)ccc12)/C(=C\c1ccccc1Cl)NC(=O)c1ccccc1 | 19.4 µM (inactive) | 15.5 µM (inactive) | 23.4 µM (inactive) | 38.2 µM (inactive) | 25.2 µM (inactive) | 23.2 µM (inactive) | 42.7 µM (inactive) | 34.6 µM (inactive) | 34.1 µM (inactive) | 48.4 | 27.4 µM (inactive) | 33.8 µM (inactive) | 24.9 µM (inactive) | 74 µM (inactive) | 54.7 µM (inactive) | 37.3 µM (inactive) | 38.6 µM (inactive) | 66.1 µM (inactive) | 86.3 µM (inactive) | 18.5 µM (inactive)
4 | COC(=O)[C@H](Cc1ccccc1)NC(=O)CCCCCCC(=O)NO | 4.6 µM (inactive) | 46.1 µM (inactive) | 6.01 µM (inactive) | 44.5 µM (inactive) | 54.5 µM (inactive) | 75.3 µM (inactive) | 5.15 µM (inactive) | 6.53 µM (inactive) | 10.1 µM (inactive) | 56.4 | 12.3 µM (inactive) | > 100 µM (inactive) | 23.1 µM (inactive) | 21.6 µM (inactive) | 26.4 µM (inactive) | 19 µM (inactive) | 13.5 µM (inactive) | 13.8 µM (inactive) | 28.3 µM (inactive) | 4.68 µM (inactive)
5 | CCn1c2ccc(C(=O)CCCN3CCCCC3)cc2c2cc(C(=O)CCCN3CCCCC3)ccc21 | 1.78 µM (inactive) | 1.58 µM (inactive) | 13.2 µM (inactive) | 1.81 µM (inactive) | 2.67 µM (inactive) | 11.9 µM (inactive) | 1.78 µM (inactive) | 2.97 µM (inactive) | 1.9 µM (inactive) | 1.86 | 4.94 µM (inactive) | 16.9 µM (inactive) | 3.78 µM (inactive) | 1.83 µM (inactive) | 2.13 µM (inactive) | 2.22 µM (inactive) | 1.72 µM (inactive) | 2.91 µM (inactive) | 3.48 µM (inactive) | 1.56 µM (inactive)
6 | COC(CNC(=O)CNC(=O)c1ccc(C(F)(F)F)cc1)OC | > 100 µM (inactive) | > 100 µM (inactive) | > 100 µM (inactive) | > 100 µM (inactive) | > 100 µM (inactive) | > 100 µM (inactive) | > 100 µM (inactive) | > 100 µM (inactive) | > 100 µM (inactive) | > 100 | > 100 µM (inactive) | > 100 µM (inactive) | > 100 µM (inactive) | > 100 µM (inactive) | > 100 µM (inactive) | > 100 µM (inactive) | > 100 µM (inactive) | > 100 µM (inactive) | > 100 µM (inactive) | > 100 µM (inactive)
7 | COCO[C@@H]1C[C@H]2C(=O)N(COC)c3ccccc3C(=O)N2C1 | > 100 µM (inactive) | > 100 µM (inactive) | > 100 µM (inactive) | > 100 µM (inactive) | > 100 µM (inactive) | > 100 µM (inactive) | > 100 µM (inactive) |  | > 100 µM (inactive) | > 100 | > 100 µM (inactive) | > 100 µM (inactive) | > 100 µM (inactive) | > 100 µM (inactive) | > 100 µM (inactive) | > 100 µM (inactive) | > 100 µM (inactive) | > 100 µM (inactive) | > 100 µM (inactive) | > 100 µM (inactive)
8 | NC(=O)c1ccc(C(=O)Nc2ccc([As](=O)(O)O)cc2)cc1 | > 100 µM (inactive) | > 100 µM (inactive) | > 100 µM (inactive) | > 100 µM (inactive) | > 100 µM (inactive) | > 100 µM (inactive) | > 100 µM (inactive) | > 100 µM (inactive) |  | > 100 | > 100 µM (inactive) | > 100 µM (inactive) | > 100 µM (inactive) | > 100 µM (inactive) | > 100 µM (inactive) | > 100 µM (inactive) | > 100 µM (inactive) | > 100 µM (inactive) | > 100 µM (inactive) | > 100 µM (inactive)
9 | COc1cc(/C=C2\N=C(c3ccccc3)N(c3nc4c(OC)ccc(OC)c4s3)C2=O)ccc1O | 35.5 µM (inactive) | 17.3 µM (inactive) | 36.6 µM (inactive) | 69.3 µM (inactive) | 96.8 µM (inactive) |  | 95.9 µM (inactive) | 18.1 µM (inactive) | 38 µM (inactive) | 70.1 | 39.1 µM (inactive) | 96.4 µM (inactive) | > 100 µM (inactive) | 45.7 µM (inactive) | > 100 µM (inactive) | 24.1 µM (inactive) | 20.1 µM (inactive) | 58.1 µM (inactive) | > 100 µM (inactive) | 31.1 µM (inactive)
10 | COC1=NC(NC2OCC(O)C(O)C2O)=C(NC(C)=O)CN1C (centres undefined) | > 100 µM (inactive) | > 100 µM (inactive) | > 100 µM (inactive) | > 100 µM (inactive) | > 100 µM (inactive) | > 100 µM (inactive) | > 100 µM (inactive) | > 100 µM (inactive) |  | > 100 | > 100 µM (inactive) | > 100 µM (inactive) | > 100 µM (inactive) | > 100 µM (inactive) | > 100 µM (inactive) | > 100 µM (inactive) | > 100 µM (inactive) | > 100 µM (inactive) | > 100 µM (inactive) | > 100 µM (inactive)
11 | Cn1c2ccccc2n2c3ncccc3/c(=N/CCCC(=O)O)c(C#N)c12 | > 100 µM (inactive) | > 100 µM (inactive) | > 100 µM (inactive) | > 100 µM (inactive) | > 100 µM (inactive) | > 100 µM (inactive) | > 100 µM (inactive) | > 100 µM (inactive) |  | > 100 | > 100 µM (inactive) | > 100 µM (inactive) | > 100 µM (inactive) | > 100 µM (inactive) | > 100 µM (inactive) | > 100 µM (inactive) | > 100 µM (inactive) |  | > 100 µM (inactive) | > 100 µM (inactive)
12 | Cc1cc(O)c(C(c2ccncc2)c2c(O)cc(C)[nH]c2=O)c(=O)[nH]1 |  | > 100 µM (inactive) | > 100 µM (inactive) | > 100 µM (inactive) | > 100 µM (inactive) |  | > 100 µM (inactive) | > 100 µM (inactive) | > 100 µM (inactive) | > 100 | > 100 µM (inactive) | > 100 µM (inactive) | > 100 µM (inactive) | > 100 µM (inactive) | > 100 µM (inactive) | > 100 µM (inactive) | > 100 µM (inactive) | > 100 µM (inactive) | 5.12 µM (inactive) | > 100 µM (inactive)
13 | O=C(Nc1ccccc1)c1cc(S(=O)(=O)Nc2n[nH]c(=O)n2-c2ccccc2)c(S)cc1Cl | > 100 µM (inactive) | > 100 µM (inactive) | > 100 µM (inactive) | > 100 µM (inactive) | > 100 µM (inactive) | > 100 µM (inactive) | > 100 µM (inactive) | > 100 µM (inactive) | > 100 µM (inactive) | > 100 | > 100 µM (inactive) | > 100 µM (inactive) | > 100 µM (inactive) | > 100 µM (inactive) |  | > 100 µM (inactive) | > 100 µM (inactive) | > 100 µM (inactive) | > 100 µM (inactive) | > 100 µM (inactive)
14 | C1=CC2(C=CC13O[C@H](C1CCCCC1)[C@@H](C1CCCCC1)O3)O[C@H](C1CCCCC1)[C@@H](C1CCCCC1)O2 | > 50 µM (inactive) | > 50 µM (inactive) | > 50 µM (inactive) | > 50 µM (inactive) | > 50 µM (inactive) | > 50 µM (inactive) | > 50 µM (inactive) | > 50 µM (inactive) | > 50 µM (inactive) | > 50 | > 50 µM (inactive) | > 50 µM (inactive) | > 50 µM (inactive) | > 50 µM (inactive) | > 50 µM (inactive) | > 50 µM (inactive) | > 50 µM (inactive) | > 50 µM (inactive) | > 50 µM (inactive) | 
